Patent publication US9364479B2, “Use of a receptor-type kinase modulator for treating polycystic kidney disease” (SYMPHONY EVOLUTION, INC., priority 2010, dated 2016)

Legend:
[1] = test system: Adrenergic, Alpha 1, Non-selective; assay: NovaScreen assay; format: binding
[2] = test system: Glutamate, AMPA Site; assay: NovaScreen assay; format: binding
[3] = test system: Melatonin, Non-selective; assay: NovaScreen assay; format: binding
[4] = molecular target: T1, Muscarinic, M2 (Human Recombinant) (Homo sapiens, UniProt P08172); assay: NovaScreen assay; format: binding
T1 construct: NovaScreen
T1 sequence (P08172 whole entry): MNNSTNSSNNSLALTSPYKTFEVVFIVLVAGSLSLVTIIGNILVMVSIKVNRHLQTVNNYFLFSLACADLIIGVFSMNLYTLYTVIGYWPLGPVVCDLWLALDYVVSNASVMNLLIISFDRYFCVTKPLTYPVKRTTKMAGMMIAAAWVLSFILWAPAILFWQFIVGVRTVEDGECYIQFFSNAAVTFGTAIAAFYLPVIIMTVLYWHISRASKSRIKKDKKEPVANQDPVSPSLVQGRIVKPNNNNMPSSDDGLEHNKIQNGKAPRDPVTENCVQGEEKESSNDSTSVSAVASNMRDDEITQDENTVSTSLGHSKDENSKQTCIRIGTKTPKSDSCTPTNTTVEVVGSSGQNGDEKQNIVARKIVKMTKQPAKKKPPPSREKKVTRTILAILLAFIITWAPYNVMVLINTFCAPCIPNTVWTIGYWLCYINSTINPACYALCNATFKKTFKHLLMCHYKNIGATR

[5] = test system: Opiate, Non-selective; assay: NovaScreen assay; format: binding
[6] = test system: Estrogen; assay: NovaScreen assay; format: binding
[7] = molecular target: T2, NOS (Neuronal-Binding) (Homo sapiens, UniProt P29475); assay: NovaScreen assay; details: read-out: Inhibition, 10 μM XL-647
T2 construct: NovaScreen

[8] = molecular target: T3, Thromboxane A2 (Human) (Homo sapiens, UniProt P21731); assay: NovaScreen assay; format: binding; details: read-out: Inhibition, 10 μM XL-647
T3 construct: NovaScreen
T3 sequence (P21731 whole entry): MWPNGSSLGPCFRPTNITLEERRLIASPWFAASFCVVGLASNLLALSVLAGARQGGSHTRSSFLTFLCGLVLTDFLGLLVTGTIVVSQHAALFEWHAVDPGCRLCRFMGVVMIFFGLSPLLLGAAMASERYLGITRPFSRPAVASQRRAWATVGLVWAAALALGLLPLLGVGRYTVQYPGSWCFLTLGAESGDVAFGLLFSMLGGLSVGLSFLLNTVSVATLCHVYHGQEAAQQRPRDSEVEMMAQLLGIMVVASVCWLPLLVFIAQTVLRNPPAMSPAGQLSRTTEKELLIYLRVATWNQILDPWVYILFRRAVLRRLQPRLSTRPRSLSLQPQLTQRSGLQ

[9] = molecular target: T4, Neurokinin, NK3 (NKB) (Homo sapiens, UniProt P29371); assay: NovaScreen assay; format: binding; details: read-out: Inhibition, 10 μM XL-647
T4 construct: NovaScreen
T4 sequence (P29371 whole entry): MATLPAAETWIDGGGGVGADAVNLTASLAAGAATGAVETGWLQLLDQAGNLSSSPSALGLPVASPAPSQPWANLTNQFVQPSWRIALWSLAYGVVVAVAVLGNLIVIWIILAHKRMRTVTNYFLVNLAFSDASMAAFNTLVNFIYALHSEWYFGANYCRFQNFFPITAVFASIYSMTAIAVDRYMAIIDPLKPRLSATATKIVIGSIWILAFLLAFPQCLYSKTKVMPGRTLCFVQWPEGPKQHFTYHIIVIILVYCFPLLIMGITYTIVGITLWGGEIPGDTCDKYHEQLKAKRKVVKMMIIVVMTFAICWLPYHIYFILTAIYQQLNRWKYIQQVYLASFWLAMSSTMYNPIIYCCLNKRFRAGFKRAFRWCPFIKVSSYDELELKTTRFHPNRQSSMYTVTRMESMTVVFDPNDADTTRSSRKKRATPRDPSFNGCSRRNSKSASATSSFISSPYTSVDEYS

[10] = molecular target: T5, EphA2 (Homo sapiens, UniProt P29317); assay: Chemiluminescent kinase assay; format: biochemical
T5 construct: Human, N598-; mM MgCl2, 3 mM MnCl2,; R890, N-His6; His6 (N)
T5 sequence (P29317 598-890): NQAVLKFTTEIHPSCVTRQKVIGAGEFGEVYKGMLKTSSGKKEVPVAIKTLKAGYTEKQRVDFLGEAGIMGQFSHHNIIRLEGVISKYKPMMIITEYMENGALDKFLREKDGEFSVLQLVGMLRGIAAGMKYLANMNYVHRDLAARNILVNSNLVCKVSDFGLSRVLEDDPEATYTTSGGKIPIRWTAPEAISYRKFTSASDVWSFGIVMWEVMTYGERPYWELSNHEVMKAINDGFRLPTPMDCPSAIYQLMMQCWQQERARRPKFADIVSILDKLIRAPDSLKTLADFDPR
Protocol: A Luciferase-coupled chemiluminescence assay was used to measure EGFR and KDR (VEGFR2) activity. Kinase activity was measured as the percentage of ATP consumed following the kinase reaction using luciferase-luciferin-coupled chemiluminescence. Reactions were conducted in 384-well white, medium-binding microtiter plates (Greiner). […] The reaction mixture was incubated at room temperature for 4 h. Following the kinase reaction, a 20 μL aliquot of Kinase Glo (Promega) was added and luminescence signal was measured using a Victor2 plate reader (Perkin-Elmer). Total ATP consumption was limited to 50%.

[11] = molecular target: wt EGFR (A431) (Homo sapiens, UniProt P00533); assay: Cell-based EGFR autophosphorylation assay in A431 cells; details: read-out: IC50, EGFR phosphorylation
wt EGFR (A431), sequence (P00533 25-1210): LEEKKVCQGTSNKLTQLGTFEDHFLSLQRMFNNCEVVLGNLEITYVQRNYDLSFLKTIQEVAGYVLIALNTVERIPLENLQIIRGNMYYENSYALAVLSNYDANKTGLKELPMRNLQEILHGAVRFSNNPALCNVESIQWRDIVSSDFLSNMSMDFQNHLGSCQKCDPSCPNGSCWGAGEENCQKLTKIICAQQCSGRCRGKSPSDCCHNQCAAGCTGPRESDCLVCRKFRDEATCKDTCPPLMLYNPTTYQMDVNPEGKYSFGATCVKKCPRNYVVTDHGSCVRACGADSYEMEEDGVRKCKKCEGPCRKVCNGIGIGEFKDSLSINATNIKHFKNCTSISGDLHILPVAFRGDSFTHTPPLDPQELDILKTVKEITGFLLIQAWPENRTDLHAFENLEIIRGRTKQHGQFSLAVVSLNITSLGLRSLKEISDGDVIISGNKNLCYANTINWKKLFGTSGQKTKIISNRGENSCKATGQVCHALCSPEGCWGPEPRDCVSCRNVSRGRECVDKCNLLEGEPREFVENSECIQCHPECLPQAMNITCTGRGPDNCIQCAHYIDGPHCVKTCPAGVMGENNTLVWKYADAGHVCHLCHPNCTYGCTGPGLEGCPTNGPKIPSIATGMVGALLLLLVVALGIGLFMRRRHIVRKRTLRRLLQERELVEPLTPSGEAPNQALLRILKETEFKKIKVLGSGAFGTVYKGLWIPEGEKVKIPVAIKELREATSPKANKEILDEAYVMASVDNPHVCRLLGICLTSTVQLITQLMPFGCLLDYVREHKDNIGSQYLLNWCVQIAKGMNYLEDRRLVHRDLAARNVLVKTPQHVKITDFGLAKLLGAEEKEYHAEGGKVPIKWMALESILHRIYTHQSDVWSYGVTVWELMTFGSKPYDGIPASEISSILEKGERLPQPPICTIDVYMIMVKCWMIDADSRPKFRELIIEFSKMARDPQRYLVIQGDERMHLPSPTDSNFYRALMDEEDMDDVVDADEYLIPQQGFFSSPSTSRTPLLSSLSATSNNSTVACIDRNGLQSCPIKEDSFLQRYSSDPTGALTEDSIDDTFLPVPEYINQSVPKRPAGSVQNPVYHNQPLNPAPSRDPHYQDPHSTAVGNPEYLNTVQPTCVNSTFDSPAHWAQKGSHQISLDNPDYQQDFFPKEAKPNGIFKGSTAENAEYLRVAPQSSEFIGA
Protocol: A431 contains overexpressed wt human EGFR.
A431 and MDA-MB-231 cell lines were maintained and propagated as monolayer cultures in DMEM (Mediatech) containing L-glutamine supplemented with 10% heat-inactivated fetal bovine serum (Hyclone), 100 units/mL penicillin G, 100 μg/mL streptomycin (1% penicillin/streptomycin, Mediatech), and 1% nonessential amino acids (Mediatech) at 37° C. in a humidified 5% CO2 incubator.
A431 cells were seeded at 5×10^4 per well in 96-well microtiter plates (3904 Costar, VWR) and incubated in fully supplemented DMEM for 16 h after which growth medium was replaced with serum-free DMEM and the cells were incubated for an additional 24 h. […] After treatment, cell monolayers were washed with cold PBS and immediately lysed with cold lysis buffer (50 mmol/L Tris-HCl (pH 8.0), 150 mmol/L NaCl, 10% glycerol, 1% NP40, 0.1% SDS, 0.5% sodium deoxycholate, 1 mmol/L EDTA, 50 mmol/L NaF, 1 mmol/L sodium pyrophosphate, 1 mmol/L sodium orthovanadate, 2 mmol/L phenylmethylsulfonyl fluoride, 10 μg/mL aprotinin, 5 μg/mL leupeptin, 5 μg/mL pepstatin). […] Horseradish peroxidase activity was determined by reading the plates in a Victor2 plate reader following addition of the ELISA Femto substrate (Pierce).

[12] = molecular target: KDR (Homo sapiens, UniProt P35968); assay: Cellular autophosphorylation assay; format: cell-based
KDR, sequence (P35968 20-1356, species assumed): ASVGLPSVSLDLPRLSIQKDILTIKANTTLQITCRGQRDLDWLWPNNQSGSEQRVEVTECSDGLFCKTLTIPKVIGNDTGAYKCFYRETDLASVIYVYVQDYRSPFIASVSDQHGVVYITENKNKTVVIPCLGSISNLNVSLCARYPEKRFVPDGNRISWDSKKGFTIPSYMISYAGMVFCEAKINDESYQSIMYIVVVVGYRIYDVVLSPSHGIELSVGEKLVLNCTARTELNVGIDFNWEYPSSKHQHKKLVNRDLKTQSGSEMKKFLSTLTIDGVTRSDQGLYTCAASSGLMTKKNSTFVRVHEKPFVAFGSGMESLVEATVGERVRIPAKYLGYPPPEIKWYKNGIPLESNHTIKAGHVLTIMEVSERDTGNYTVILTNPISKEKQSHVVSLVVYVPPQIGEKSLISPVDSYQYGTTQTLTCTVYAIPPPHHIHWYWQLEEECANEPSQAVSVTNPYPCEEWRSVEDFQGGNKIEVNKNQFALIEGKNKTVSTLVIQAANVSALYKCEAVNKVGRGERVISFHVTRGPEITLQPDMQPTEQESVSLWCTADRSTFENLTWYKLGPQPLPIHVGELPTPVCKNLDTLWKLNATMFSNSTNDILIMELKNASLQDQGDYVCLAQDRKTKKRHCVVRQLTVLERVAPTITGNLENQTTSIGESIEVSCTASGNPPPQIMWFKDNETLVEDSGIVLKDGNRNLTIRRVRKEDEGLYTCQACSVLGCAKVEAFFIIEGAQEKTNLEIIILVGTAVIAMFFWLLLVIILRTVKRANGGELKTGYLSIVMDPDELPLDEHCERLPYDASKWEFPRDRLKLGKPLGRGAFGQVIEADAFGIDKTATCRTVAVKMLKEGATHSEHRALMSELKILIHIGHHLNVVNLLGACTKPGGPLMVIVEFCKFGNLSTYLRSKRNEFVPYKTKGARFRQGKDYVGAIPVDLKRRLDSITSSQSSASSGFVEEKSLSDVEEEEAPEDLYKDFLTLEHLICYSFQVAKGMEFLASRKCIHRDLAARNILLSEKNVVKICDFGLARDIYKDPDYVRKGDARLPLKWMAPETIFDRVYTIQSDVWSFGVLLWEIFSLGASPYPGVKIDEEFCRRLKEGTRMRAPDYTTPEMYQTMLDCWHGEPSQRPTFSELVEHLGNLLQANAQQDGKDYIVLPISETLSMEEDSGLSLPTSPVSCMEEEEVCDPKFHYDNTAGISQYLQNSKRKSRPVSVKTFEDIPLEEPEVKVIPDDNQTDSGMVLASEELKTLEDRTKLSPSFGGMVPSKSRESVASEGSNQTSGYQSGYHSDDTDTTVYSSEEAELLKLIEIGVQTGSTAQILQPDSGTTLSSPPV

[13] = in vitro; format: in vitro ADME, mouse and human; details: rat, mouse, human, plasma
[14] = molecular target: T6, CYP3A4 (Homo sapiens, UniProt P08684); details: microsomes
T6 sequence (P08684 whole entry): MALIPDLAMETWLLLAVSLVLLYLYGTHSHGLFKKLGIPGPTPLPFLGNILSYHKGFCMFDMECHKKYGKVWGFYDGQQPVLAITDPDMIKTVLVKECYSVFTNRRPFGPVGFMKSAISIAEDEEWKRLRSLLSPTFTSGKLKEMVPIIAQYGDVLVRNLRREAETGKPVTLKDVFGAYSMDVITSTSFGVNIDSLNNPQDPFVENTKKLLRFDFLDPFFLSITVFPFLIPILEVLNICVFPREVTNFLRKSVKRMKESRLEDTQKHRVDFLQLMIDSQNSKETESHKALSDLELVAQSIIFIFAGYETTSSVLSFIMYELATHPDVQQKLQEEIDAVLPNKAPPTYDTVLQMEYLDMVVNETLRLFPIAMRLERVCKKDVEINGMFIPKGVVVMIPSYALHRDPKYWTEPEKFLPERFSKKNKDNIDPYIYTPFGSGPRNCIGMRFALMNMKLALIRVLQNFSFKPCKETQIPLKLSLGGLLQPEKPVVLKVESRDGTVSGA

[15] = molecular target: T6, CYP3A4; details: microsomes; remark: listed apart in the source
[16] = clinical; details: human, in vivo
[17] = test system: subjects with advanced solid tumors; assay: Clinical Study XL-647-002 (Phase 1, daily dosing)

COc1cc2c(Nc3ccc(Cl)c(Cl)c3F)ncnc2cc1OC[C@@H]1C[C@@H]2CN(C)C[C@@H]2C1 [XL-647, N-(3,4-dichloro-2-fluorophenyl)-7-({[(3aR,5r,6aS)-2-methyloctahydrocyclopenta[c]pyrrol-5-yl]methyl}oxy)-6-(methyloxy)quinazolin-4-amine]
Inhibition, 10 μM XL-647 [1]: 49.40%
Inhibition, 10 μM XL-647 [2]: 10.79%
Inhibition, 10 μM XL-647 [3]: 0.18%
IC50 [4]: 1180 nM
inhibition at 10 µM ([4]; read-out: Inhibition, 10 μM XL-647): 98.7%
Inhibition, 10 μM XL-647 [5]: 39.73%
Inhibition, 10 μM XL-647 [6]: 15.75%
inhibition at 10 µM [7]: 16.8%
inhibition at 10 µM [8]: 1.51%
inhibition at 10 µM [9]: 20%
IC50 [10]: 6.8 ± 0.8 nM
IC50 [11]: 1 nM
IC50 [12]: 137 nM
fraction unbound [13]: 0.04 to 0.09
CYP3A4 substrate, in words [14]: substrate for CYP3A4-mediated metabolism
CYP3A4 inhibition, in words [15]: but not CYP3A4
half-life [16]: ~60 h
Tmax ([16]; po): ~4 h
subjects with SD lasting greater than 3 months ([17]; human, in vivo): 16 subjects
MTD ([17]; single oral dose daily): 300 mg
